Source: US4278596A, “Analgesic pentapeptides” (American Home Products Corporation, priority 1978, dated 1981)

Key:
rats = assay: rat-tail flick method of D'Amour and Smith; format: in vivo; conditions: 5.0 mg/kg. i.v.
Experimental: In this procedure, a representative polypeptide of this invention, N-Me-Tyr-D-Ser-Gly-N-Me-Phe-D-Ser-NH2,acetate, produced significant analgesia in rats upon administration at a dose as low as 0.1 mg/kg. intravenously, and 0.5 mg/kg. subcutaneously.
When N-Me-Tyr-D-Ser-Gly-N-Me-Phe-D-Ser-NH2, acetate was tested in the rat-tail flick procedure of D'Amour and Smith (supra), the following results were obtained: […]

opiate receptor = conditions: brain homogenates; cited from earlier work
mouse vas deferns = conditions: mouse vas deferens, like morphine; cited from earlier work
guinea pig ileum = conditions: like morphine; cited from earlier work

Molecule | dead (rats) | effect on stereospecific receptor binding of 3H-naloxone (opiate receptor) | effect on electrically evoked contractions (mouse vas deferns) | effect on electrically evoked contractions (guinea pig ileum)
CN[C@@H](Cc1ccc(O)cc1)C(=O)N[C@H](CO)C(=O)NCC(=O)N(C)[C@@H](Cc1ccccc1)C(=O)N[C@H](CO)C(N)=O [N-Methyl-Tyrosyl-D-Serylglycyl-N-MethylPhenylalanyl-D-Serinamide. Acetate] | 3/6 | – | – | –
H-Tyr-Gly-Gly-Phe-Leu-OH [leucine-enkephalin] | – | inhibit | block electrically evoked contractions | block electrically evoked contractions
H-Tyr-Gly-Gly-Phe-Met-OH [methionine-enkephalin] | – | inhibit | block electrically evoked contractions | block electrically evoked contractions
